Assay results published in PubChem BioAssay (NCI).
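Assay format: 96-well plates, 48-hour exposure. TGI denotes the concentration required for complete inhibition of growth.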

How the values were obtained:
Experiment in all cases: growth of human tumour cells (NCI), 48 h
[1] = test system: SNB-19 CNS
[2] = test system: NCI-H226 lung
[3] = test system: UACC-62 melanoma
[4] = test system: SF-539 CNS
[5] = test system: HL-60(TB) leukemia
[6] = test system: K-562 leukemia
[7] = test system: MDA-MB-435
[8] = test system: MCF7 breast
[9] = test system: NCI-H460 lung
[10] = test system: RXF 393 renal
[11] = test system: DU-145 prostate
[12] = test system: NCI-H23 lung

Row | Structure (SMILES) | TGI [1] [µM] | TGI [2] [µM] | TGI [3] [µM] | TGI [4] [µM] | TGI [5] [µM] | TGI [6] [µM] | TGI [7] [µM] | TGI [8] [µM] | TGI [9] [µM] | TGI [10] [µM] | TGI [11] [µM] | TGI [12] [µM]
1 | CC(C)C(OC(=O)c1ccc(NCC2=CC(=O)C=CC2=O)cc1)C(C)C | 53.5 | 11.7 | 20.3 | 4.1 | 3.96 | 12.6 | 17.9 | 22.5 | 32.6 | 3.67 | 65.5 | 20.2
2 | CC(=O)NCC1OC2COC(c3ccccc3)OC2C(NC(=O)c2ccccc2)C1OC(=O)c1ccccc1 (centres undefined) | > 100 | > 100 | > 100 | > 100 | > 100 | > 100 | > 100 | > 100 | > 100 | > 100 | > 100 | > 100
3 | O=C(/C=C/c1ccccc1)Nc1ccccc1SCCCCl | > 95.4 | > 100 | > 72.7 | 39.8 | 43.6 | > 100 | 37 | > 100 | > 82.2 | 84.2 | > 100 | 40.7
4 | OC(CN(CCCl)CCCl)C(O)C(O)C(O)CN(CCCl)CCCl (centres undefined) | > 100 | > 100 | > 100 | > 100 | > 100 | > 100 | > 100 | > 100 | > 100 | > 100 | > 100 | > 100
5 | [B-][P+](CC[P+]1([B-])[C@@H](C)[C@@H](O)[C@H](O)[C@@H]1C)(c1ccccc1)c1ccccc1OC (some centres undefined) | 30.9 | 31.8 | 28.1 | 31.6 | 54 | 70.8 | 30.4 | 35.6 | 32 | 31.2 | 33.7 | 31.3
6 | COc1ccccc1/C=C/C1=NN(c2cccc(S(=O)(=O)O)c2)C2(C1)C(Cl)C(=O)N2c1nc2ccccc2s1 (centres undefined) | > 100 | > 100 | > 100 | > 100 | 45.5 | > 100 | > 100 | > 100 | > 100 | > 87 | > 100 | > 100
7 | NC1CCC(N(CC(=O)O)CC(=O)O)C(N(CC(=O)O)CC(=O)O)C1 (centres undefined) | > 100 | > 100 | > 100 | > 100 | > 100 | > 100 | > 100 | > 100 | > 100 | > 100 | > 100 | > 100
